These results are taken from patent US7598393B2 (dated 2009).

As a reminder, the melting point is the temperature of the solid-liquid transition.

Structures can show the parent of a compound that is named as a salt.

The compound `CC(C)S(=O)(=O)c1ccc2c(c1)nc(CC1CC1)n2CC1CC1` returned a melting point of 107 °C. The compound `CCS(=O)(=O)c1ccc2c(c1)nc(CC(C)(C)C)n2CC1CCCO1` (stereo not drawn) gave a melting point of 142 °C.

As to `CC(C)S(=O)(=O)c1ccc2c(c1)nc(CC(C)(C)C)n2CC1(O)CCOCC1`, the melting point was found to be 189 °C.

On to `CC(C)S(=O)(=O)c1cnc2c(c1)nc(CC(C)(C)C)n2CC1(O)CCOCC1`, for which the melting point was 179 °C.

Regarding `CCS(=O)(=O)c1ccc2c(c1)nc(CC(C)(C)C)n2CCOC(F)(F)F`, the melting point was found to be 133 °C. As for `CCS(=O)(=O)c1ccc2c(c1)nc(CC(C)(C)C)n2CC1(O)CCCC1`, the figure is 172 °C. Turning to `CC(C)(C)Cc1nc2cc(S(C)(=O)=O)ccc2n1CC1CC1` (as salt: hydrochloride), the melting point stood at 217 °C. `CC(C)S(=O)(=O)c1cnc2c(c1)nc(CC(C)(C)C)n2CCN(C)C` registered a melting point of 119 °C. The figure for `CC(C)S(=O)(=O)c1ccc2c(c1)nc(CC1CCCC1)n2CC1CC1` is 137 °C; for `CC(C)S(=O)(=O)c1cnc2c(c1)nc(CC(C)(C)C)n2CC1CCOCC1` it is 201 °C; for `CC(C)S(=O)(=O)c1ccc2c(c1)nc(CC(C)(C)C)n2CCN1CCOCC1` it is 151 °C. As to `CC(C)S(=O)(=O)c1ccc2c(c1)nc(CC(C)(C)C)n2CCN(C)C`, the melting point worked out at 116 °C. The figure for `CC(C)S(=O)(=O)c1ccc2c(c1)nc(CC1(C)CCCC1)n2CC1CC1` is 122 °C; for `CC(C)(C)Cc1nc2cc(S(=O)(=O)c3ccccc3)ccc2n1CC1CC1` it is 173 °C; for `CCS(=O)(=O)c1cnc2c(c1)nc(CC(C)(C)C)n2CC1CCOCC1` it is 191 °C.
